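Tested at 5 concentrations; 48 h exposure; 96-well plates; endpoints linearly interpolated, else capped at highest concentration. The concentration for 50% growth inhibition is given as GI50.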 The source made the active and inactive calls. No stated cut-off is given here; in the data, active = GI50 up to about 1.1 µM and inactive = higher.
Legend:
Assay in all cases: NCI-60 cell line screen, 48 h
786-0 = test system: 786-0
A498 = test system: A498
A549 = test system: A549
ACHN = test system: ACHN
BT-549 = test system: BT-549
CAKI-1 = test system: CAKI-1
CCRF-CEM = test system: CCRF-CEM
COLO 205 = test system: COLO 205
DU-145 = test system: DU-145
EKVX = test system: EKVX
HCC 2998 = test system: HCC 2998
HCT-116 = test system: HCT-116
HCT-15 = test system: HCT-15
HL-60 = test system: HL-60
HOP-62 = test system: HOP-62
HOP-92 = test system: HOP-92
HT-29 = test system: HT-29
Hs-578T = test system: Hs-578T
K562 = test system: K562
KM12 = test system: KM12
LOX IMVI = test system: LOX IMVI
M14 = test system: M14
MCF7 = test system: MCF7
MDA-MB-231 = test system: MDA-MB-231
MDA-MB-435 = test system: MDA-MB-435
MDA-N = test system: MDA-N
MOLT-4 = test system: MOLT-4
Malme-3M = test system: Malme-3M
NCI-H226 = test system: NCI-H226
NCI-H23 = test system: NCI-H23
NCI-H460 = test system: NCI-H460
NCI-H522 = test system: NCI-H522
OVCAR-3 = test system: OVCAR-3
OVCAR-4 = test system: OVCAR-4
OVCAR-5 = test system: OVCAR-5
PC-3 = test system: PC-3
RPMI-8226 = test system: RPMI-8226
RXF 393 = test system: RXF 393
SF-268 = test system: SF-268
SF-295 = test system: SF-295
SF-539 = test system: SF-539
SK-MEL-28 = test system: SK-MEL-28
SK-MEL-2 = test system: SK-MEL-2
SK-MEL-5 = test system: SK-MEL-5
SK-OV-3 = test system: SK-OV-3
SN12C = test system: SN12C
SNB-19 = test system: SNB-19
SR = test system: SR
SW-620 = test system: SW-620
T47D = test system: T47D
TK-10 = test system: TK-10
U-251 = test system: U-251
UACC-257 = test system: UACC-257
UACC-62 = test system: UACC-62
UO-31 = test system: UO-31
IGROV-1 = test system: IGROV-1
NCI/ADR-RES = test system: NCI/ADR-RES
OVCAR-8 = test system: OVCAR-8
SNB-75 = test system: SNB-75

For COc1ccc2nc3cc([N+](=O)[O-])ccc3c(Nc3ccc(S(=O)(=O)N=C(N)N)cc3)c2c1, the GI50 (786-0) was 20.1 µM (inactive), the GI50 (A498) was > 100 µM (inactive) and the GI50 (A549) was 47 µM (inactive). For the same molecule, the GI50 (ACHN) was 40.9 µM (inactive), the GI50 (BT-549) was 33.2 µM (inactive) and the GI50 (CAKI-1) was 23.3 µM (inactive). For the same molecule, the GI50 (CCRF-CEM) was 11 µM (inactive), the GI50 (COLO 205) was 23.1 µM (inactive) and the GI50 (DU-145) was 28.8 µM (inactive). For the same molecule, the GI50 (EKVX) was 15.2 µM (inactive), the GI50 (HCC 2998) was 19 µM (inactive) and the GI50 (HCT-116) was 11.9 µM (inactive). The GI50 (HCT-15) was 36.2 µM, the GI50 (HL-60) was 11.9 µM (inactive) and the GI50 (HOP-62) was 27.2 µM (inactive). For the same molecule, the GI50 (HOP-92) was 11.5 µM (inactive), the GI50 (HT-29) was 22.1 µM (inactive) and the GI50 (Hs-578T) was 30.9 µM (inactive). For the same molecule, the GI50 (K562) was 18.3 µM (inactive), the GI50 (KM12) was 15.5 µM (inactive) and the GI50 (LOX IMVI) was 28.4 µM (inactive). For the same molecule, the GI50 (M14) was 30.5 µM (inactive), the GI50 (MCF7) was 9.55 µM (inactive) and the GI50 (MDA-MB-231) was 17.2 µM (inactive). For the same molecule, the GI50 (MDA-MB-435) was 39.9 µM (inactive), the GI50 (MDA-N) was 39.3 µM (inactive) and the GI50 (MOLT-4) was 2.72 µM (inactive). For the same molecule, the GI50 (Malme-3M) was 14 µM (inactive), the GI50 (NCI-H226) was 20.4 µM (inactive) and the GI50 (NCI-H23) was 26.8 µM (inactive). The GI50 (NCI-H460) was 9.82 µM (inactive), the GI50 (NCI-H522) was 18.8 µM (inactive) and the GI50 (OVCAR-3) was 16.5 µM (inactive). For the same molecule, the GI50 (OVCAR-4) was 28.2 µM (inactive), the GI50 (OVCAR-5) was > 100 µM (inactive) and the GI50 (PC-3) was 12 µM (inactive). For the same molecule, the GI50 (RPMI-8226) was 10.5 µM (inactive), the GI50 (RXF 393) was 40.1 µM (inactive) and the GI50 (SF-268) was 28 µM (inactive). The GI50 (SF-295) was 47.1 µM (inactive), the GI50 (SF-539) was 24.1 µM (inactive) and the GI50 (SK-MEL-28) was > 100 µM (inactive). For the same molecule, the GI50 (SK-MEL-2) was 18.5 µM (inactive), the GI50 (SK-MEL-5) was 15.7 µM (inactive) and the GI50 (SK-OV-3) was 58.5 µM (inactive). For the same molecule, the GI50 (SN12C) was 48.1 µM (inactive), the GI50 (SNB-19) was 43.6 µM (inactive) and the GI50 (SR) was 1.32 µM (inactive). The GI50 (SW-620) was 36.8 µM (inactive), the GI50 (T47D) was 9.91 µM (inactive) and the GI50 (TK-10) was 47.2 µM (inactive). The GI50 (U-251) was 30.5 µM (inactive), the GI50 (UACC-257) was 51.2 µM (inactive) and the GI50 (UACC-62) was 14.6 µM (inactive). The GI50 (UO-31) was 30.5 µM (inactive).

CS(=O)(=O)CC(=O)c1ccccc1 was tested, and the GI50 (786-0) was > 100 µM (inactive), the GI50 (A498) was > 100 µM (inactive) and the GI50 (A549) was > 100 µM (inactive). The GI50 (ACHN) was > 100 µM (inactive), the GI50 (BT-549) was > 100 µM (inactive) and the GI50 (CCRF-CEM) was > 100 µM (inactive). For the same molecule, the GI50 (COLO 205) was > 100 µM (inactive), the GI50 (DU-145) was > 100 µM (inactive) and the GI50 (EKVX) was > 100 µM (inactive). For the same molecule, the GI50 (HCC 2998) was > 100 µM (inactive), the GI50 (HCT-116) was > 100 µM (inactive) and the GI50 (HCT-15) was greater than 100 µM. For the same molecule, the GI50 (HL-60) was > 100 µM (inactive), the GI50 (HOP-62) was > 100 µM (inactive) and the GI50 (HT-29) was > 100 µM (inactive). The GI50 (Hs-578T) was > 100 µM (inactive), the GI50 (IGROV-1) was > 100 µM (inactive) and the GI50 (K562) was > 100 µM (inactive). The GI50 (KM12) was > 100 µM (inactive), the GI50 (LOX IMVI) was > 100 µM (inactive) and the GI50 (M14) was > 100 µM (inactive). For the same molecule, the GI50 (MCF7) was > 100 µM (inactive), the GI50 (MDA-MB-435) was > 100 µM (inactive) and the GI50 (MDA-N) was > 100 µM (inactive). The GI50 (MOLT-4) was > 100 µM (inactive), the GI50 (Malme-3M) was > 100 µM (inactive) and the GI50 (NCI-H226) was > 100 µM (inactive). For the same molecule, the GI50 (NCI-H23) was > 100 µM (inactive), the GI50 (NCI-H460) was > 100 µM (inactive) and the GI50 (NCI-H522) was > 100 µM (inactive). The GI50 (NCI/ADR-RES) was > 100 µM (inactive), the GI50 (OVCAR-3) was > 100 µM (inactive) and the GI50 (OVCAR-4) was > 100 µM (inactive). For the same molecule, the GI50 (OVCAR-5) was > 100 µM (inactive), the GI50 (OVCAR-8) was > 100 µM (inactive) and the GI50 (PC-3) was > 100 µM (inactive). The GI50 (RPMI-8226) was > 100 µM (inactive), the GI50 (RXF 393) was > 100 µM (inactive) and the GI50 (SF-268) was > 100 µM (inactive). For the same molecule, the GI50 (SF-295) was > 100 µM (inactive), the GI50 (SF-539) was > 100 µM (inactive) and the GI50 (SK-MEL-28) was > 100 µM (inactive). For the same molecule, the GI50 (SK-MEL-2) was > 100 µM (inactive), the GI50 (SK-MEL-5) was > 100 µM (inactive) and the GI50 (SK-OV-3) was > 100 µM (inactive). For the same molecule, the GI50 (SN12C) was > 100 µM (inactive), the GI50 (SNB-19) was > 100 µM (inactive) and the GI50 (SNB-75) was 38.8 µM (inactive). The GI50 (SR) was > 100 µM (inactive), the GI50 (SW-620) was > 100 µM (inactive) and the GI50 (T47D) was > 100 µM (inactive). The GI50 (TK-10) was > 100 µM (inactive), the GI50 (U-251) was > 100 µM (inactive) and the GI50 (UACC-257) was > 100 µM (inactive). The GI50 (UACC-62) was > 100 µM (inactive) and the GI50 (UO-31) was > 100 µM (inactive).
